# Active and inactive are the calls of the source. How the calls were made is not given here.
# Test system: CCRIS mutagenicity, Ames/micronucleus/aberration tests
# Test: CCRIS mutagenicity studies
# [1] = Test System: AMES SALMONELLA TYPHIMURIUM, Strain/Indicator: TA98, Metabolic Activation: HAMSTER, LIVER, S-9, AROCLOR 1254, Method: STANDARD PLATE
# [2] = Test System: AMES SALMONELLA TYPHIMURIUM, Strain/Indicator: TA98, Metabolic Activation: NONE, Method: PREINCUBATION
# [3] = Test System: AMES SALMONELLA TYPHIMURIUM, Strain/Indicator: TA98, Metabolic Activation: NONE, Method: STANDARD PLATE
# [4] = Test System: AMES SALMONELLA TYPHIMURIUM, Strain/Indicator: TA98, Metabolic Activation: RAT, LIVER, S-9, AROCLOR 1254, Method: STANDARD PLATE
# [5] = Test System: AMES SALMONELLA TYPHIMURIUM, Strain/Indicator: TA100, Metabolic Activation: HAMSTER, LIVER, S-9, AROCLOR 1254, Method: STANDARD PLATE
# [6] = Test System: AMES SALMONELLA TYPHIMURIUM, Strain/Indicator: TA100, Metabolic Activation: NONE, Method: PREINCUBATION
# [7] = Test System: AMES SALMONELLA TYPHIMURIUM, Strain/Indicator: TA100, Metabolic Activation: NONE, Method: STANDARD PLATE
# [8] = Test System: AMES SALMONELLA TYPHIMURIUM, Strain/Indicator: TA100, Metabolic Activation: RAT, LIVER, S-9, AROCLOR 1254, Method: STANDARD PLATE
# [9] = Test System: AMES SALMONELLA TYPHIMURIUM, Strain/Indicator: TA1535, Metabolic Activation: HAMSTER, LIVER, S-9, AROCLOR 1254, Method: STANDARD PLATE
# [10] = Test System: AMES SALMONELLA TYPHIMURIUM, Strain/Indicator: TA1535, Metabolic Activation: NONE, Method: PREINCUBATION
# [11] = Test System: AMES SALMONELLA TYPHIMURIUM, Strain/Indicator: TA1535, Metabolic Activation: NONE, Method: STANDARD PLATE
# [12] = Test System: AMES SALMONELLA TYPHIMURIUM, Strain/Indicator: TA1535, Metabolic Activation: RAT, LIVER, S-9, AROCLOR 1254, Method: STANDARD PLATE
# [13] = Test System: AMES SALMONELLA TYPHIMURIUM, Strain/Indicator: TA1537, Metabolic Activation: HAMSTER, LIVER, S-9, AROCLOR 1254, Method: STANDARD PLATE
# [14] = Test System: AMES SALMONELLA TYPHIMURIUM, Strain/Indicator: TA1537, Metabolic Activation: NONE, Method: PREINCUBATION
# [15] = Test System: AMES SALMONELLA TYPHIMURIUM, Strain/Indicator: TA1537, Metabolic Activation: NONE, Method: STANDARD PLATE
# [16] = Test System: AMES SALMONELLA TYPHIMURIUM, Strain/Indicator: TA1537, Metabolic Activation: RAT, LIVER, S-9, AROCLOR 1254, Method: STANDARD PLATE
# [17] = Test System: AMES SALMONELLA TYPHIMURIUM, Strain/Indicator: TA1538, Metabolic Activation: NONE, Method: PREINCUBATION
smiles,measurement,setting,value
Cc1ccccc1Cl,mutagenic call,[1],inactive; negative
same,mutagenic call,[2],inactive; negative
same,mutagenic call,[3],inactive; negative
same,mutagenic call,"Test System: AMES SALMONELLA TYPHIMURIUM, Strain/Indicator: TA98, Metabolic Activation: RAT LIVER S-9, PHENOBARBITAL AND BETA-NAPHTHOFLAVONE, Method: PREINCUBATION",inactive; negative
same,mutagenic call,[4],inactive; negative
same,mutagenic call,[5],inactive; negative
same,mutagenic call,[6],inactive; negative
same,mutagenic call,[7],inactive; negative
same,mutagenic call,"Test System: AMES SALMONELLA TYPHIMURIUM, Strain/Indicator: TA100, Metabolic Activation: RAT LIVER S-9, PHENOBARBITAL AND BETA-NAPHTHOFLAVONE, Method: PREINCUBATION",inactive; negative
same,mutagenic call,[8],inactive; negative
same,mutagenic call,"Test System: AMES SALMONELLA TYPHIMURIUM, Strain/Indicator: TA102, Metabolic Activation: NONE, Method: PREINCUBATION",inactive; negative
same,mutagenic call,"Test System: AMES SALMONELLA TYPHIMURIUM, Strain/Indicator: TA102, Metabolic Activation: RAT LIVER S-9, PHENOBARBITAL AND BETA-NAPHTHOFLAVONE, Method: PREINCUBATION",inactive; negative
same,mutagenic call,"Test System: AMES SALMONELLA TYPHIMURIUM, Strain/Indicator: TA104, Metabolic Activation: NONE, Method: PREINCUBATION",inactive; negative
same,mutagenic call,"Test System: AMES SALMONELLA TYPHIMURIUM, Strain/Indicator: TA104, Metabolic Activation: RAT LIVER S-9, PHENOBARBITAL AND BETA-NAPHTHOFLAVONE, Method: PREINCUBATION",inactive; negative
same,mutagenic call,[9],inactive; negative
same,mutagenic call,[10],inactive; negative
same,mutagenic call,[11],inactive; negative
same,mutagenic call,"Test System: AMES SALMONELLA TYPHIMURIUM, Strain/Indicator: TA1535, Metabolic Activation: RAT LIVER S-9, PHENOBARBITAL AND BETA-NAPHTHOFLAVONE, Method: PREINCUBATION",inactive; negative
same,mutagenic call,[12],inactive; negative
same,mutagenic call,[13],inactive; negative
same,mutagenic call,[14],inactive; negative
same,mutagenic call,[15],inactive; negative
same,mutagenic call,"Test System: AMES SALMONELLA TYPHIMURIUM, Strain/Indicator: TA1537, Metabolic Activation: RAT LIVER S-9, PHENOBARBITAL AND BETA-NAPHTHOFLAVONE, Method: PREINCUBATION",inactive; negative
same,mutagenic call,[16],inactive; negative
same,mutagenic call,"Test System: AMES SALMONELLA TYPHIMURIUM, Strain/Indicator: TA1538, Metabolic Activation: HAMSTER, LIVER, S-9, AROCLOR 1254, Method: STANDARD PLATE",inactive; negative
same,mutagenic call,[17],inactive; negative
same,mutagenic call,"Test System: AMES SALMONELLA TYPHIMURIUM, Strain/Indicator: TA1538, Metabolic Activation: NONE, Method: STANDARD PLATE",inactive; negative
same,mutagenic call,"Test System: AMES SALMONELLA TYPHIMURIUM, Strain/Indicator: TA1538, Metabolic Activation: RAT LIVER S-9, PHENOBARBITAL AND BETA-NAPHTHOFLAVONE, Method: PREINCUBATION",inactive; negative
same,mutagenic call,"Test System: AMES SALMONELLA TYPHIMURIUM, Strain/Indicator: TA1538, Metabolic Activation: RAT, LIVER, S-9, AROCLOR 1254, Method: STANDARD PLATE",inactive; negative
same,mutagenic call,"Test System: E. COLI, Strain/Indicator: WP2UVRA/PKM101, Metabolic Activation: RAT LIVER S-9, PHENOBARBITAL AND BETA-NAPHTHOFLAVONE, Method: PREINCUBATION",inactive; negative
same,mutagenic call,"Test System: E. COLI, Strain/Indicator: WP2UVRA, Metabolic Activation: NONE, Method: PREINCUBATION",inactive; negative
same,mutagenic call,"Test System: E. COLI, Strain/Indicator: WP2UVRA, Metabolic Activation: RAT LIVER S-9, PHENOBARBITAL AND BETA-NAPHTHOFLAVONE, Method: PREINCUBATION",inactive; negative
same,mutagenic call,"Test System: E.COLI, Strain/Indicator: WP2UVRA/PKM101, Metabolic Activation: NONE, Method: PREINCUBATION",inactive; negative
same,mutagenic call,"Test System: Mouse lymphoma, Strain/Indicator: L5178Y (tk+/tk-), Metabolic Activation: None, Method: Suspension/plate",inactive; negative
same,mutagenic call,"Test System: Mouse lymphoma, Strain/Indicator: L5178Y (tk+/tk-), Metabolic Activation: Rat, Liver, S-9, Aroclor 1254, Method: Suspension/plate",inactive; negative
Cc1ccc(Nc2ccc([N+](=O)[O-])cc2)cc1,mutagenic call,"Test System: AMES SALMONELLA TYPHIMURIUM, Strain/Indicator: TA98(NR), Metabolic Activation: NONE, Method: PREINCUBATION",inactive; negative
same,mutagenic call,[2],active; positive
same,mutagenic call,"Test System: AMES SALMONELLA TYPHIMURIUM, Strain/Indicator: TA98, Metabolic Activation: RAT, LIVER, S-9, AROCLOR 1254, Method: PREINCUBATION",active; positive
C=C(OC)[C@H](CSCC(Br)c1ccccc1)NC(=O)CC (stereo partly specified),mutagenic call,"Test System: AMES SALMONELLA TYPHIMURIUM, Strain/Indicator: TA100, Metabolic Activation: NONE, Method: SPOT TEST",inactive; negative
COc1c(O)cc2c3c(cc4ccccc4c13)NC2=O,mutagenic call,"Test System: AMES SALMONELLA TYPHIMURIUM, Strain/Indicator: TM677/8-AZAGUANINE, Metabolic Activation: NONE, Method: SUSPENSION/PLATE",inactive; negative
Cc1ccc2c(c1)Cc1cc(C)ccc1-2,mutagenic call,[4],inactive; negative
same,mutagenic call,[8],inactive; negative
O=C(O)/C=C/c1ccccc1[N+](=O)[O-],mutagenic call,[2],inactive; negative
same,mutagenic call,[3],inactive; negative
same,mutagenic call,[4],inactive; negative
same,mutagenic call,"Test System: AMES SALMONELLA TYPHIMURIUM, Strain/Indicator: TA98, Method: PREINCUBATION",inactive; negative
same,mutagenic call,[6],inactive; negative
same,mutagenic call,[7],inactive; negative
same,mutagenic call,"Test System: AMES SALMONELLA TYPHIMURIUM, Strain/Indicator: TA100, Metabolic Activation: RAT, LIVER, S-9, AROCLOR 1254, Method: PREINCUBATION",inactive; negative
same,mutagenic call,[8],inactive; negative
same,mutagenic call,"Test System: AMES SALMONELLA TYPHIMURIUM, Strain/Indicator: TA100, Method: PREINCUBATION",inactive; negative
same,mutagenic call,[10],inactive; negative
same,mutagenic call,"Test System: AMES SALMONELLA TYPHIMURIUM, Strain/Indicator: TA1535, Method: PREINCUBATION",inactive; negative
same,mutagenic call,[14],inactive; negative
same,mutagenic call,"Test System: AMES SALMONELLA TYPHIMURIUM, Strain/Indicator: TA1537, Method: PREINCUBATION",inactive; negative
same,mutagenic call,[17],inactive; negative
same,mutagenic call,"Test System: AMES SALMONELLA TYPHIMURIUM, Strain/Indicator: TA1538, Method: PREINCUBATION",inactive; negative
O=C1c2ccccc2-c2ccccc21,mutagenic call,[1],inactive; negative
same,mutagenic call,[3],inactive; negative
same,mutagenic call,[4],inactive; negative
same,mutagenic call,[5],inactive; negative
same,mutagenic call,[7],inactive; negative
same,mutagenic call,[8],inactive; negative
same,mutagenic call,[9],inactive; negative
same,mutagenic call,[11],inactive; negative
same,mutagenic call,[12],inactive; negative
same,mutagenic call,[13],inactive; negative
same,mutagenic call,[15],inactive; negative
same,mutagenic call,[16],inactive; negative
same,mutagenic call,"Test System: MOUSE LYMPHOMA, Strain/Indicator: L5178Y (TK+/TK-), Metabolic Activation: NONE, Method: SUSPENSION/PLATE",inactive; negative. reevaluation of results: inconclusive
same,mutagenic call,"Test System: MOUSE LYMPHOMA, Strain/Indicator: L5178Y (TK+/TK-), Metabolic Activation: RAT, LIVER, S-9, AROCLOR 1254, Method: SUSPENSION/PLATE",inactive; negative. reevaluation of results: negative
